According to paper PMC10082216 (Nature Communications, 2023):
Like-named read-outs stand apart in the source and are kept apart here.

Legend:
[1] = test system: mature stage V gametocytes (NF54 strain); assay: High-throughput screening: killing effect by MitoTracker staining, primary screening at 1.11 µM and dose-response analysis; format: cell-based, Plasmodium falciparum; design: Killing 1 / Killing 2: unit not given here
Method in brief: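 NF54 stage V gametocytes (day 17, density-purified, 0.5% hematocrit) exposed 24 h to compounds at 1.11 µM (primary) or in dose-response. Killing scored by MitoTracker staining; gametocytemia by Sybr Green/CellMask staining, with microsphiltration for stiffening. DMSO 0.05% negative control.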

[2] = test system: synchronized ring-stage P. falciparum 3D7-pULG8-GFP; assay: Dose-response analysis on asexual parasites, 3D7; format: cell-based; conditions: Plasmodium falciparum
Procedure: (§1) Plasmodium falciparum 3D7-pULG8-GFP or NF54 strains were synchronized by sorbitol lysis. Rings were then diluted to 0.5% parasitemia and loaded into an empty 96-well plate (200 µL/well). First, well volume was doubled and compound was added to obtain 20 µM (TD-6450) and 500 nM (NITD609) final concentrations. The ring suspension was then manually serially diluted 1/2 for 12 points, obtaining 9.77 nM (TD-6450) and 0.24 nM (NITD609) as lowest concentrations. The same operation was done with DMSO to have a negative control. After 48 hours of incubation, the plates were centrifugated and RBC pellets were incubated for 30 min with Sybr-G (1/1000 diluted in PBS, Thermo Fisher cat. no. S7567). After PBS washing (2x), pellets were resuspended in 200 µL of PBS and parasitemia was quantified by FACSCanto and analyzed with FlowJo V12. IC50s were determined using GraphPad Prism 5.1 as mentioned. Images from optical microscopy were taken using a Leica inverted microscope and analyzed with Las X software.

[3] = test system: synchronized ring-stage P. falciparum NF54; assay: Dose-response analysis on asexual parasites, NF54; format: cell-based, Plasmodium falciparum; conditions: for Parasitemia 1 / Parasitemia 2 / Parasitemia 3: NF54 ring stage; for IC50: Plasmodium falciparum, NF54, 48 h
Procedure: as §1

[4] = 3D7, 48 h, read-out: IC50, 3D7 strain (Fig. 5B)

Row | Structure (SMILES) | Killing 1 ([1]; Concentration (µM) 0.00457) | Killing 2 ([1]; Concentration (µM) 0.00457) | Killing 1 ([1]; Concentration (µM) 0.01372) | Killing 2 ([1]; Concentration (µM) 0.01372) | Killing 1 ([1]; Concentration (µM) 0.04115) | Killing 2 ([1]; Concentration (µM) 0.04115) | Killing 1 ([1]; Concentration (µM) 0.12346) | Killing 2 ([1]; Concentration (µM) 0.12346) | Killing 1 ([1]; Concentration (µM) 0.37037) | Killing 2 ([1]; Concentration (µM) 0.37037) | Killing 2 ([1]; Concentration (µM) 1.11111) | Killing 2 ([1]; Concentration (µM) 3.33333) | Killing 2 ([1]; Concentration (µM) 10) | Killing 1 ([1]; Concentration (µM) 1.11111) | Killing 1 ([1]; Concentration (µM) 3.33333) | Killing 1 ([1]; Concentration (µM) 10) | IC50 [2, 4] | other results
1 | COc1cc2c(cc1OC)[C@@H]1Cc3ccc(OC)c(OC)c3CN1CC2 [(S)-(-)-Tetrahydropalmatine] | -2.5151 | 13.1152 | -0.7507 | 16.6892 | -11.759 | -1.725 | -2.104 | -3.416 | -7.032 | 6.932 | -20.6174 | 1.7558 | -10.2887 | – | – | – | – | –
2 | CNC(=O)N1C[C@@H](C)N(c2ccc(C(=O)Nc3ccc(-c4ccc(-c5c[nH]c([C@@H]6CCCN6C(=O)[C@@H](NC(=O)OC)C(C)C)n5)cc4)c(OC(F)(F)F)c3)cn2)C[C@@H]1C [TD-6450] | 11.2808 | -14.2963 | 2.341 | 5.18 | 2.7905 | -6.465 | 6.495 | 2.622 | 21.5808 | 10.8967 | -5.531 | 15.2641 | 9.163 | 13.8006 | 21.7528 | 38.4381 | 730 nM | IC50 ([2]; 3D7, 2 experiments, 48 h, read-out: IC50 on asexual parasites, 3D7): 875 ± 205 nM; Parasitemia 1 ([3]; 10 µM): 0.14; Parasitemia 2 ([3]; 10 µM): 0.17; Parasitemia 3 ([3]; 10 µM): 0.23; Parasitemia 1 ([3]; 20 µM): 0.2; Parasitemia 2 ([3]; 20 µM): 0.18; Parasitemia 3 ([3]; 20 µM): 0.2; IC50 ([3]; 2 experiments, read-out: IC50 on asexual parasites, NF54): 1330 ± 230 nM; IC50 ([3]; ring stage, blue curves, read-out: IC50, NF54 strain (Fig. 5B)): 1170 nM
3 | C[C@H]1Cc2c([nH]c3cc(Cl)c(F)cc23)[C@@]2(N1)C(=O)Nc1ccc(Cl)cc12 [NITD609, cipargamin] | -6.197 | 1.637 | 7.015 | 11.7246 | 2.936 | 8.401 | 38.3591 | 39.938 | 69.6281 | 81.8548 | 86.5546 | 89.8018 | 89.7094 | 86.7644 | 82.0471 | 93.1364 | 1.25 nM | Killing IC10 ([1]; Fig. 3 dose-response): 50 nM; IC50 ([1]; Plasmodium falciparum, NF54, 24 h, stage V gametocytes NF54, 24 h, dose-response analysis, N/A = not active in dose-response analysis, read-out: Killing IC50): 150 nM; IC90 ([1]; Plasmodium falciparum, NF54, Fig. 3 dose-response): 500 nM; IC50 ([3]; ring stage, red curves, read-out: IC50, NF54 strain (Fig. 5B)): 1.8 nM
